Assay results from patent US20260306527A1, “PRMT INHIBITOR COMPOUNDS AND THE USES THEREOF” (Purdue Research Foundation, priority 2023, published 2026).
Like-named read-outs stand apart in the source and are kept apart here.

Experiments:
Assay type in all cases: biochemical
PRMT3 [1] = target: PRMT3 (Homo sapiens, UniProt O60678); assay: SAHH-coupled fluorescence assay, inhibition of PRMT3; design: PRMT3 (residues 211-531) was cloned into the pET28a-MHL expression vector; tag of the pET28a-MHL vector (not described); made in house; host or cells: Escherichia coli BL21(DE3)
Sequence of PRMT3 (Homo sapiens, UniProt O60678) (O60678 211-531): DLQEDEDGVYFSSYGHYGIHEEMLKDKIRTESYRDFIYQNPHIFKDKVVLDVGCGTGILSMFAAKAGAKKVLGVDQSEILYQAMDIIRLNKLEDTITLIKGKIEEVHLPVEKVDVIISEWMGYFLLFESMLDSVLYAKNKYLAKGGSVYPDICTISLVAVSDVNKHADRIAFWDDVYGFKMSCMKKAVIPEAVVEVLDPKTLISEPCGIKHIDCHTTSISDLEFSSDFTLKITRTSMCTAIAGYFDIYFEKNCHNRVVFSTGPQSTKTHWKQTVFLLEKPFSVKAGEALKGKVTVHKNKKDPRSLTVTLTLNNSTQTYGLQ
Procedure, shortened: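 Coupled SAHH/ThioGlo4 fluorescence read-out (ex 380 nm, em 505 nm) of PRMT3 (0.25 μM) methylation with 30 μM AdoMet and 5 μM SAHH. Buffer was 20 mM Tris pH 7.5 with 0.01% Triton X-100. Run in duplicate.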

PRMT1 = target: T1, PRMT1 (Homo sapiens, UniProt Q99873); assay: SAHH-coupled fluorescence assay, inhibition of PRMT1
T1 construct: made in house
T1 sequence (Q99873 whole entry, species assumed): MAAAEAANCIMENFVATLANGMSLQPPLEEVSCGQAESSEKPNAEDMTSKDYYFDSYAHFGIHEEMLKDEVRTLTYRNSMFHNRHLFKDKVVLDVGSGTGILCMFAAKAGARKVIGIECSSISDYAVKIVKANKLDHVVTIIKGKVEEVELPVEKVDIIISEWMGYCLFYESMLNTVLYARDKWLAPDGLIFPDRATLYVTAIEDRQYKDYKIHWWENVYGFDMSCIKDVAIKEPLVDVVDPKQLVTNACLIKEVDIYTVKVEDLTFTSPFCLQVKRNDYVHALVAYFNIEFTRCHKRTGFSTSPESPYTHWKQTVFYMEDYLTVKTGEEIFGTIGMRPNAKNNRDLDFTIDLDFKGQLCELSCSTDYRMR
Procedure, shortened: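 PRMT1 (0.1 μM) was run with 10 μM AdoMet, 5 μM SAHH and 10 μM ThioGlo4 in 2.5 mM HEPES pH 7.0, 25 mM NaCl, 25 μM EDTA, 50 μM TCEP and 0.01% Triton X-100. Fluorescence (ex 400/em 465 nm) was monitored for 15 min. Assays were done in duplicate.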

PRMT6 = PRMT6 (Homo sapiens, UniProt Q96LA8); assay: radioactive assay (Reaction Biology Corp.), inhibition of PRMT6
Sequence of PRMT6 (Q96LA8 whole entry, species assumed): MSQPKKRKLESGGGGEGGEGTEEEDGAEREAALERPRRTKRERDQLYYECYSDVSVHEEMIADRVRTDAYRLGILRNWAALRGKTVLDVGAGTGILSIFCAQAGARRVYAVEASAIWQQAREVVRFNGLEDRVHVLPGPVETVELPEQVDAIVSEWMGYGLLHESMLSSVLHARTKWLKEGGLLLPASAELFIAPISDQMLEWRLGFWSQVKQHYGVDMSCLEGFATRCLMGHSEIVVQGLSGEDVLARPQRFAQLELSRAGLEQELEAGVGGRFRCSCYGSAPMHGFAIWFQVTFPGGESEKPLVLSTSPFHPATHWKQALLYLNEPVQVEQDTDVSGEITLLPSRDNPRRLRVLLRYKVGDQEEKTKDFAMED
Experimental: (§1) Next, the inhibition activity of the library was investigated for five PRMT members from type I PRMTs.
(§2) The PRMT 4, 6 and 8 methylation assays were performed by Reaction Biology corp.

PRMT8 = PRMT8 (Homo sapiens, UniProt Q9NR22); assay: radioactive assay (Reaction Biology Corp.), inhibition of PRMT8
Sequence of PRMT8 (Q9NR22 whole entry, species assumed): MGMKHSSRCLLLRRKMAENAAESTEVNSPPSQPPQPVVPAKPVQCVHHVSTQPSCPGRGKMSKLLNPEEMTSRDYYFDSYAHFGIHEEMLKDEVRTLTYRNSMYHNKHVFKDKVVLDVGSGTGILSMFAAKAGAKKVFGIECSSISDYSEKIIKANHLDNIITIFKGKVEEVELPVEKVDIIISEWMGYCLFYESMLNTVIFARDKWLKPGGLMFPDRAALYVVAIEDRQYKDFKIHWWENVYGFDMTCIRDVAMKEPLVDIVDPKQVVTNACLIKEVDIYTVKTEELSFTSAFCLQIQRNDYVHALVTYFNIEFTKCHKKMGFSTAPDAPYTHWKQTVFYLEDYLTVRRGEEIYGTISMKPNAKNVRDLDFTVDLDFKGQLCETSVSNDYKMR
Experimental: as §1, §2

PRMT3 [2] = assay: SAHH-coupled fluorescence assay, inhibition of PRMT3
Experimental: A fluorescence-based SAHH-coupled assay was applied to study the inhibition activity of all synthesized compounds on PRMT 1 and 3.
(§3) The PRMT3 methylation assay was performed under the following conditions in a final well volume of 100 μL: 20 mM Tris (pH=7.5), 0.01% Triton X-100, 5 μM SAHH, 0.25 μM PRMT3, 30 μM AdoMet, and 15 μM ThioGlo4. […] Fluorescence was monitored on a BMG CLARIOstar microplate reader with excitation 380 nm and emission 505 nm. Data were processed by using GraphPad Prism software 8.0. All experiments were performed in duplicate.
as §1
as §3, with “8.0.” for “8.0. All experiments were performed in duplicate.”

PRMT4 = target: T2, PRMT4 (Homo sapiens, UniProt Q86X55); assay: radioactive assay (Reaction Biology Corp.), inhibition of PRMT4
T2 sequence (Q86X55 1-608): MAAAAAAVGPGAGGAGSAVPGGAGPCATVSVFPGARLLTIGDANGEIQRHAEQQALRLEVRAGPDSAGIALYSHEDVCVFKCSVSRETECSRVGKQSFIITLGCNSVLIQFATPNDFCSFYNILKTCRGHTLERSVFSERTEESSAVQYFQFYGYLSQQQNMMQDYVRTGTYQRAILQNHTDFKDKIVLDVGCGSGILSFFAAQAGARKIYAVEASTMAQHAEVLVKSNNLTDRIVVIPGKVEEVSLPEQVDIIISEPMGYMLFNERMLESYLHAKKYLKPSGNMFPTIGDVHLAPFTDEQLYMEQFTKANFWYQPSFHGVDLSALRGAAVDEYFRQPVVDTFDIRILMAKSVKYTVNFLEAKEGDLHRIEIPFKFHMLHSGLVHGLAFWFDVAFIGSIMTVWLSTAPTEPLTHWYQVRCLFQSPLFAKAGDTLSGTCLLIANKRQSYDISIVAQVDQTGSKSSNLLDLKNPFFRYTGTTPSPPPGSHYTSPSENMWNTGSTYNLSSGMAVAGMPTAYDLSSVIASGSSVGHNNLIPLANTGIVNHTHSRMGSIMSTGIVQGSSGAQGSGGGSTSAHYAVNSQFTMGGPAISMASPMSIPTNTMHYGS
Experimental: as §1, §2

inhibition at 10 µM (PRMT3 [1]) [%]	fold decrease in PRMT3 inhibition (PRMT3 [1]; 1d (2C-atom linker) vs II710) [fold]	inhibition at 10 µM (PRMT1) [%]	IC50 (PRMT1; read-out: IC50[μM] | PRMT1) [µM]	inhibition at 10 µM (PRMT6) [%]	inhibition at 10 µM (PRMT8) [%]	IC50 (PRMT3 [2]; read-out: IC50 [µM] | PRMT3) [µM]	inhibition at 10 µM (PRMT4) [%]	IC50 (PRMT3 [2]; read-out: IC50[μM] | PRMT3) [µM]	IC50 (PRMT1; read-out: IC50 FOR PRMT1) [µM]	Compound
57	3	86	1 ± 0.065	93	76	33 ± 4.3	99			N=C(NCCSC[C@H]1O[C@@H](n2cnc3c(N)ncnc32)[C@H](O)[C@@H]1O)NCc1ccccc1 [Compound 5a]
38		95	0.13 ± 0.006	98	99		100	8.68 ± 2.9		N=C(NCCSC[C@H]1O[C@@H](n2cnc3c(N)ncnc32)[C@H](O)[C@@H]1O)Nc1cccc(I)c1 [Compound 5c]
54		94	0.17 ± 0.011	99	98		99	7.2 ± 0.61		N=C(NCCCSC[C@H]1O[C@@H](n2cnc3c(N)ncnc32)[C@H](O)[C@@H]1O)Nc1ccccc1 [Compound 5d]
62		89	0.21 ± 0.054	91	97		100	5.9 ± 0.34		N=C(NCCSC[C@H]1O[C@@H](n2cnc3c(N)ncnc32)[C@H](O)[C@@H]1O)Nc1cccc(-c2ccc(Cl)cc2)c1 [Compound 6a]
42		83	1.8 ± 0.17	91	94		100	12 ± 0.83		N=C(NCCSC[C@H]1O[C@@H](n2cnc3c(N)ncnc32)[C@H](O)[C@@H]1O)Nc1cccc(-c2ccc(C(F)(F)F)cc2)c1 [Compound 6b]
48		84	1.5 ± 0.12	76	82		100	8.3 ± 0.34		N=C(NCCSC[C@H]1O[C@@H](n2cnc3c(N)ncnc32)[C@H](O)[C@@H]1O)Nc1cccc(-c2ccoc2)c1 [Compound 6c]
26		68	4.9 ± 0.11	67	81		100	18 ± 2.1		N=C(NCCSC[C@H]1O[C@@H](n2cnc3c(N)ncnc32)[C@H](O)[C@@H]1O)Nc1cccc(-c2cccc(F)c2)c1 [Compound 6d]
47		95	0.23 ± 0.013	99	98		100	8.6 ± 0.58		N=C(NCCCSC[C@H]1O[C@@H](n2cnc3c(N)ncnc32)[C@H](O)[C@@H]1O)Nc1cccc(-c2ccc(O)cc2)c1 [Compound 6e]
76		92	0.2 ± 0.031	97	100		100	1.8 ± 0.23		N=C(NCCCSC[C@H]1O[C@@H](n2cnc3c(N)ncnc32)[C@H](O)[C@@H]1O)Nc1cccc(-c2ccc(Cl)cc2)c1 [Compound 6f]
64		87	0.21 ± 0.023	98	99		100	3.2 ± 0.47		N=C(NCCCSC[C@H]1O[C@@H](n2cnc3c(N)ncnc32)[C@H](O)[C@@H]1O)Nc1cccc(-c2ccc3c(c2)OCCO3)c1 [Compound 6g]
57		88	0.25 ± 0.051	97	99		100	5.7 ± 0.68		N=C(NCCCSC[C@H]1O[C@@H](n2cnc3c(N)ncnc32)[C@H](O)[C@@H]1O)Nc1cccc(-c2ccc(C(F)(F)F)cc2)c1 [Compound 6h]
45		96	0.26 ± 0.057	97	99		100	4.7 ± 0.83		N=C(NCCCSC[C@H]1O[C@@H](n2cnc3c(N)ncnc32)[C@H](O)[C@@H]1O)Nc1cccc(-c2cccc(F)c2)c1 [Compound 6j]
50		97	0.33 ± 0.072	96	99		100	6.6 ± 2.8		N=C(NCCCSC[C@H]1O[C@@H](n2cnc3c(N)ncnc32)[C@H](O)[C@@H]1O)Nc1cccc(-c2ccc(F)cc2F)c1 [Compound 6k]
58		92	0.17 ± 0.022	97	99		100	5.5 ± 1		N=C(NCCCSC[C@H]1O[C@@H](n2cnc3c(N)ncnc32)[C@H](O)[C@@H]1O)Nc1cccc(-c2ccc(F)c(O)c2)c1 [Compound 6l]
22		88	0.9 ± 0.17	93	96		100	14 ± 3.1		N=C(NCCCSC[C@H]1O[C@@H](n2cnc3c(N)ncnc32)[C@H](O)[C@@H]1O)Nc1cccc(-c2cccnc2)c1 [Compound 6m]
61		91	0.35 ± 0.073	99	100		100	4.2 ± 0.61		N=C(NCCCSC[C@H]1O[C@@H](n2cnc3c(N)ncnc32)[C@H](O)[C@@H]1O)Nc1cccc(-c2ccc(F)nc2)c1 [Compound 6n]
13		89		79	74		37		1.3 ± 0.066	N=C(NCCCN)NCCCSC[C@H]1O[C@@H](n2cnc3c(NCCCc4ccccc4)ncnc32)[C@H](O)[C@@H]1O [Compound 19i]
2		83		92	86		54		0.46 ± 0.074	N=C(NCCCSC[C@H]1O[C@@H](n2cnc3c(NCCCc4ccccc4)ncnc32)[C@H](O)[C@@H]1O)Nc1ccccc1 [Compound 19j]
10		89		89	83		44		0.48 ± 0.079	N=C(NCCCSC[C@H]1O[C@@H](n2cnc3c(NCCCc4ccccc4)ncnc32)[C@H](O)[C@@H]1O)NCc1ccccc1 [Compound 19k]
9		90		86	87		26		0.5 ± 0.075	N=C(NCCCSC[C@H]1O[C@@H](n2cnc3c(NCCCc4ccccc4)ncnc32)[C@H](O)[C@@H]1O)NCCc1ccccc1 [Compound 19l]
5		87		83	85		58		0.74 ± 0.08	N=C(NCCCSC[C@H]1O[C@@H](n2cnc3c(NCCCc4ccccc4)ncnc32)[C@H](O)[C@@H]1O)NCCCc1ccccc1 [Compound 19m]
